Experimental data as given in patent US5229369A, “Aminoalkylaminocarbonyl aminodiol amino acid derivatives as anti-hypertensive agents” (G. D. Searle & Co., priority 1991, dated 1993).
Where a name gives a salt, the structure may show the parent alone. Where a SMILES comes first, the peptide text is derived from it. [ ]: non-standard residue; d: D form. The star is where a group is joined. Sta = CC(C)C[C@H](N)[C@@H](O)CC(=O)O; Isovaleryl = CC(C)CC(=O)*

How the values were obtained:
human renin = biological target: T1, human renin (Homo sapiens, UniProt P00797); assay: human renin inhibition test in vitro (angiotensin I by radioimmunoassay); assay type: biochemical; conditions: human plasma, pH 7.4, 37° C., two hours
T1 construct: purchased National Institute for Biological Standards, London
T1 sequence (P00797 67-406): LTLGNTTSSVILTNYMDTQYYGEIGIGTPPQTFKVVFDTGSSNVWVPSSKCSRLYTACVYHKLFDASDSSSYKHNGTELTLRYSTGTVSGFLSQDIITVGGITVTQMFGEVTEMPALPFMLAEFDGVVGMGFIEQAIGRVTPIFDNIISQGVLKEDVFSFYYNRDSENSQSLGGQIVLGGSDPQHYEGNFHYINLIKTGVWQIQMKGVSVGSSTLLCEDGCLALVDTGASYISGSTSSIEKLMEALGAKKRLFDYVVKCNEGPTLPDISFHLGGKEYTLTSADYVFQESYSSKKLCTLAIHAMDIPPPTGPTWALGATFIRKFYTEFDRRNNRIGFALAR
Procedure: Compounds of Formula I were evaluated as inhibitors of human renin in an in vitro assay, as follows: This human renin inhibition test has been previously described in detail [Papaioannou et al., Clinical and Experimental Hypertension, A7(9), 1243-1257 (1985)]. Human renin was obtained from the National Institute for Biological Standards, London. An incubation mixture was prepared containing in a total volume of 0.25 mL 100 mM Tris-acetate buffer at pH 7.4, 25×10^-6 Goldblatt units of renin, 0.05 mL of plasma from human volunteers taking oral contraceptives, 6.0 mM sodium EDTA, 2.4 mM phenylmethyl sulfonyl fluoride, 1.5 mM 8-hydroxyquinoline, 0.4 mg/mL BSA, and 0.024 mg/mL neomycin sulfate. This mixture was incubated for two hours at 37° C. in the presence or absence of renin inhibitors. The produced angiotensin I was determined by radioimmunoassay (New England Nuclear kit). Test compounds to be assayed were solubilized in DMSO and diluted with 100 mM Tris-acetate buffer at pH 7.4 containing 0.5% bovine serum albumin (BSA) to the appropriate concentration. The final concentration of organic solvent in the reaction mixture was less than 1%. Control incubations at 37° C. were used to correct for effects of organic solvent on renin activity.

hog renin = conditions: after injection of hog renin into nephrectomized rats; Gross et al, Science, 175, 656 (1971); cited from earlier work
[1] = system: aspartyl proteases such as pepsin, cathepsin D and renin; conditions: Umezawa et al, J. Antibiot. (Tokyo), 23, 259-262 (1970); cited from earlier work
plasma renin = assay: oral activity in vivo in sodium depleted Marmoset monkeys, plasma renin activity; parameters: species or system Common marmosets (Callithrix jacchus); conditions: 1 h, 3 mg/kg dose
Procedure: The oral activity of compounds of Formula I was determined in vivo in Marmoset monkeys in accordance with the following procedure: Common marmosets (Callithrix jacchus, Charles River) were placed on a modified high protein low sodium diet (Purina, St. Louis, Mo,) for 1 to 2 weeks. On the day of the test an animal was anesthetized with isoflurane and cannulated in the femoral artery and vein for blood pressure monitoring, intravenous saralasin infusion and blood sampling. After allowing the animal to recover from surgery for 2 hr, saralasin was infused at 1 microgram/min for 15 minutes to confirm that the animal's blood pressure was dependent on angiotensin II levels. The marmoset was allowed to stabilize for 30 min after the saralasin infusion. The test compound was administered orally and blood pressure was monitored for 2 hr. Blood samples were taken in K-EDTA for plasma renin activity before, 30 min, and 1 hr after compound administration.

SMILES | IC50 (human renin) | other results
CNCCN(C)C(=O)C[C@@H](CCc1ccccc1)C(=O)NC[C@@H](C)C(=O)N[C@@H](CC1CCCCC1)[C@@H](O)[C@@H](O)CC(C)C [Example 28, trifluoroacetate salt] | 0.096 µM | –
CC(C)C[C@H](O)[C@H](O)[C@H](CC1CCCCC1)NC(=O)[C@H](C)CNC(=O)[C@H](CCc1ccccc1)CC(=O)N(C)CCCCN(C)C(=O)OC(C)(C)C [Example 21] | 1.35 µM | –
CC(C)C[C@H](O)[C@H](O)[C@H](CC1CCCCC1)NC(=O)[C@H](C)CNC(=O)[C@H](CCc1ccccc1)CC(=O)N(C)CCN(C)C(=O)OC(C)(C)C [Example 25] | 0.01 µM | –
CC(C)CC(=O)N[C@H](C(=O)N[C@H](C(=O)N[C@@H](CC(C)C)[C@@H](O)CC(=O)N[C@@H](C)C(=O)N[C@@H](CC(C)C)[C@@H](O)CC(=O)O)C(C)C)C(C)C [pepstatin] (Isovaleryl-VV[Sta]A[Sta]-OH) | – | blood pressure in vivo (hog renin): reduce blood pressure in vivo; inhibition of aspartyl proteases [1]: inhibitor of aspartyl proteases such as pepsin, cathepsin D and renin
CNCCN(C)C(=O)O[C@@H](Cc1ccccc1)C(=O)N[C@@H](CC(C)C)C(=O)N[C@@H](CC1CCCCC1)[C@@H](O)[C@@H](O)CC(C)C [Example 11] | 0.0077 µM | % Reduction of Plasma Renin Activity (plasma renin): 100%
CC(C)C[C@H](O)[C@H](O)[C@H](CC1CCCCC1)NC(=O)[C@H](Cc1c[nH]cn1)NC(=O)[C@H](Cc1ccccc1)OC(=O)N(C)CCN(C)C(=O)OC(C)(C)C [Example 23] | 0.00045 µM | –
CC(C)C[C@H](O)[C@H](O)[C@H](CC1CCCCC1)NC(=O)[C@H](C)CNC(=O)[C@H](Cc1ccccc1)OC(=O)N(C)CCN(C)C [Example 18] | 0.17 µM | –
CC(C)C[C@H](NC(=O)[C@H](Cc1ccccc1)OC(=O)N(CCN(C)C)C(C)C)C(=O)N[C@@H](CC1CCCCC1)[C@@H](O)[C@@H](O)CC(C)C [Example 20] | 0.019 µM | –
CNCCN(C)C(=O)O[C@@H](Cc1ccccc1)C(=O)NC[C@@H](C)C(=O)N[C@@H](CC1CCCCC1)[C@@H](O)[C@@H](O)CC(C)C [Example 27] | 0.1 µM | –
CC(C)C[C@H](NC(=O)[C@H](Cc1ccccc1)OC(=O)N(C)CCN(C)C)C(=O)N[C@@H](CC1CCCCC1)[C@@H](O)[C@@H](O)CC(C)C [Example 15] | 0.0054 µM | % Reduction of Plasma Renin Activity (plasma renin): 79%
CC(C)C[C@H](O)[C@H](O)[C@H](CC1CCCCC1)NC(=O)[C@H](C)CNC(=O)[C@H](CCc1ccccc1)OC(=O)N(C)CCN(C)C [Example 24] | 0.23 µM | –
CC(C)C[C@H](O)[C@H](O)[C@H](CC1CCCCC1)NC(=O)[C@H](C)CNC(=O)[C@H](Cc1ccccc1)OC(=O)N(C)CCN(C)C(=O)OC(C)(C)C [Example 26] | 0.0083 µM | –
CNCCCCN(C)C(=O)C[C@@H](CCc1ccccc1)C(=O)NC[C@@H](C)C(=O)N[C@@H](CC1CCCCC1)[C@@H](O)[C@@H](O)CC(C)C [Example 22, 3-{N-[4-(N-methylamino)butyl]-N-methyl-aminocarbonyl}-2-R-phenethyl-propionyl-α-(R)-methyl-β-alanineamide of (2S,3R,4S)-2-amino-1-cyclohexyl-3,4-dihydroxy-6-methylheptane] | 0.067 µM | –
CC(C)C[C@H](O)[C@H](O)[C@H](CC1CCCCC1)NC(=O)[C@H](C)CNC(=O)[C@@H](CC(=O)N(C)CCN(C)C)Cc1ccccc1 [Example 19] | 0.048 µM | –
CC(C)C[C@H](O)[C@H](O)[C@H](CC1CCCCC1)NC(=O)[C@H](Cc1c[nH]cn1)NC(=O)[C@H](Cc1ccccc1)OC(=O)N(C)CCN(C)C [Example 8, O-{N-[2-(N,N-dimethylamino)ethyl]-N-methylaminocarbonyl}-3-L-phenyllactyl-L-histidineamide of (2S,3R,4S)-2-amino-1-cyclohexyl-3,4-dihydroxy-6-methylheptane] | 0.001 µM | % Reduction of Plasma Renin Activity (plasma renin): 100%
CNCCN(C)C(=O)O[C@@H](Cc1ccccc1)C(=O)N[C@@H](Cc1c[nH]cn1)C(=O)N[C@@H](CC1CCCCC1)[C@@H](O)[C@@H](O)CC(C)C [Example 10, O-{N-[2-(N-methylamino)ethyl]-N-methylaminocarbonyl}-3-L-phenyllactyl-L-histidineamide of (2S,3R,4S)-2-amino-1-cyclohexyl-3,4-dihydroxy-6-methylheptane] | 0.0015 µM | % Reduction of Plasma Renin Activity (plasma renin): 100%
